This is an account of results in patent US7414128B2, “Crystalline R-guanidines, Arginine or (L)-Arginine (2S)-2-Ethoxy-3-{4-[2-(10H -phenoxazin-10-yl)ethoxy]phenyl}propanoate” (Dr. Reddy's Laboratories, Limited, priority 2002, dated 2008).

A short description of one series: aqueous solubility. It is filed as physicochemical. To be noted: salt compared with the free acid.
The next series can be described thus: bioavailability. The conditions noted are these: attributed to the higher aqueous solubility.
Series [1] can be described thus: hygroscopicity at high relative humidity. It is filed as physicochemical. The conditions noted are these: even at relative humidities as high as 90 RH.
Another series in a line: stability of the salt. In kind it is physicochemical.

Where a name gives a salt, the structure may show the parent alone.

In the case of `CCO[C@@H](Cc1ccc(OCCN2c3ccccc3Oc3ccccc32)cc1)C(=O)O` [(2S)-2-Ethoxy-3-{4-[2-(10H-phenoxazin-10-yl)ethoxy]phenyl}pr] [(2S)-2-Ethoxy-3-{4-[2-(10H-phenoxazin-10-yl)ethoxy]phenyl}propanoic acid], the “solubility in aqueous media” value in the series “aqueous solubility” is on record as “sparingly soluble”.

On to `CCO[C@@H](Cc1ccc(OCCN2c3ccccc3Oc3ccccc32)cc1)C(=O)O` [(L)-Arginine salt, (L)-Arginine (2S)-2-Ethoxy-3-{4-[2-(10H-phenoxazin-10-yl)ethoxy]phenyl}propanoate], for which, in the series “bioavailability”, the bioavailability entry is on record as “good bioavailability”. In the series “aqueous solubility”, the “solubility in aqueous media” value was “significantly higher aqueous solubility”. In addition, the hygroscopicity result in series [1] is “not hygroscopic”. Besides, the stability result in “stability of the salt” was “highly stable”.
